According to a compilation of properties of binary mixtures (doi:10.1039/c7cp04592a):

Assay: xn = mol fraction of the nth substance listed
Details: 100 kPa

CC#N + CC[NH3+].O=[N+]([O-])[O-]
x2 = 0
Details	viscosity [mPa·s]
288.07 K	0.408
293.1 K	0.371
298 K	0.35
298.12 K	0.352
303.13 K	0.321

CC[NH3+].O=[N+]([O-])[O-] + CC#N
Details	electrical conductivity [S/m]	viscosity [mPa·s]
278 K, x1 = 0.1	1.12	–
278 K, x1 = 0.2	2.29	–
278 K, x1 = 0.5	2.85	–
278 K, x1 = 0.7	2	–
278 K, x1 = 0.9	1.59	–
288 K, x1 = 0.1	1.32	–
288 K, x1 = 0.2	2.85	–
288 K, x1 = 0.3	3.41	–
288 K, x1 = 0.5	3.77	–
288 K, x1 = 0.9	2.27	–
288.06 K, x1 = 0.6	–	13.65
288.06 K, x1 = 0.8	–	31.4
288.06 K, x1 = 0.9	–	40.5
288.06 K, x1 = 1	–	44.4
288.07 K, x1 = 0.1	–	0.815
288.09 K, x1 = 0.2	–	1.615
288.09 K, x1 = 0.4	–	5.47
288.09 K, x1 = 0.5	–	8.6
293.06 K, x1 = 0.4	–	4.9
293.07 K, x1 = 0.2	–	1.458
293.08 K, x1 = 0.8	–	26.09
293.08 K, x1 = 0.9	–	34
293.08 K, x1 = 0.98	–	36.9
293.08 K, x1 = 1	–	37.2
293.09 K, x1 = 0.5	–	7.45
293.09 K, x1 = 0.6	–	11.54
293.1 K, x1 = 0.1	–	0.754
293.11 K, x1 = 0.7	–	17.86
298 K, x1 = 0.1	1.69	0.685
298 K, x1 = 0.2	3.96	1.374
298 K, x1 = 0.3	4.71	2.451
298 K, x1 = 0.4	–	4.07
298 K, x1 = 0.5	5	6.37
298 K, x1 = 0.6	–	9.92
298 K, x1 = 0.8	–	20.97
298 K, x1 = 0.9	3.14	27.58
298 K, x1 = 0.98	–	32
298 K, x1 = 1	2.26	32.7
298.05 K, x1 = 0.8	–	21.52
298.07 K, x1 = 1	–	33.9
298.08 K, x1 = 0.7	–	15.22
298.08 K, x1 = 0.9	–	28.01
298.11 K, x1 = 0.3	–	2.463
298.11 K, x1 = 0.4	–	4.11
298.11 K, x1 = 0.5	–	6.46
298.13 K, x1 = 0.6	–	10.08
298.14 K, x1 = 0.1	–	0.698
303.08 K, x1 = 0.7	–	12.25
303.09 K, x1 = 0.3	–	2.396
303.1 K, x1 = 0.1	–	0.651
303.11 K, x1 = 0.4	–	4.16
303.11 K, x1 = 0.5	–	6.13
303.11 K, x1 = 0.6	–	8.74
303.11 K, x1 = 0.9	–	24.88
303.12 K, x1 = 0.2	–	1.16
303.13 K, x1 = 1	–	30.58
303.14 K, x1 = 0.98	–	29.95
303.16 K, x1 = 0.8	–	17.9
308 K, x1 = 0.1	2.38	–
308 K, x1 = 0.3	6.28	–
308 K, x1 = 0.5	6.3	–
308 K, x1 = 0.9	4.21	–
308 K, x1 = 1	3.07	–
308.11 K, x1 = 1	–	26.5
308.12 K, x1 = 0.4	–	3.98
308.13 K, x1 = 0.2	–	1.074
308.14 K, x1 = 0.98	–	24.9
308.15 K, x1 = 0.5	–	5.77
308.16 K, x1 = 0.1	–	0.618
